Source: patent US8530636B2, “Method for regulating protein function in cells in vivo using synthetic small molecules” (priority 2008, dated 2013)
Where two headings read alike, the source gives them in different places.

Test system: HCT116 tumors

1-[2-(3,4,5-trimethoxy-phenyl)-butyryl]-piperazine-2-carboxylic acid 3-(3,4-dimethoxy-phenyl)-1-[3-(2-morpholin-4-yl-ethoxy)-phenyl]-propyl ester [Shield1]
Virus in the tumor (viral luciferase expression) (Shield1 delayed until 3 days following virus): equivalent to those observed in animals treated with virus alone
Virus in the tumor (viral luciferase expression) (Shield1 started prior to virus delivery): only modest levels of virus
Adverse physiological effects (mouse, in vivo): no adverse physiological effects observed
Tumor burden compared to virus alone (mouse, in vivo): significantly decreased tumor burden
Tumor responses (mouse, in vivo): Seven of the eight animals demonstrated complete and durable responses
Tumor burden, Shield1 alone (no virus): no effect on tumor burden
